{"source": "paper PMC4914250", "about": "“Cancer therapeutic approach based on conformational stabilization of mutant p53 protein by small peptides” (Oncotarget, 2016)"}
{"system": "mutp53 in SK3 cell extract", "experiment": "ELISA of mutp53 DNA binding (p53RE oligonucleotide), SK3", "format": "biochemical, human", "details": "score 0-6 compared to positive control", "method": "Next, we assessed the ability of our selected peptides to restore sequence-specific DNA binding to mutp53. To that end we employed an ELISA kit (R&D) in which cell extracts containing p53 are reacted with a biotinylated p53RE oligonucleotide and then incubated in wells coated with anti-p53 antibody, which is expected to trap the p53 protein and its associated p53RE DNA. The amount of p53RE retained in each well via p53 binding is quantified by incubation with streptavidin-HRP. […] Again, extracts of MCF7 and H1299-tsp53^A135V cells served as positive controls for WTp53 DNA binding activity. […] Importantly, there was substantial overlap between the peptides that stabilized the WT conformation (Figure 2A) and those that increased specific DNA binding (Figure 2B), further reinforcing the conclusion that those peptides stabilize mutp53 in a functional state. This was not seen with the randomly selected peptides 1-6 (black bars).\nFor these experiments, a commercial p53/DNA binding kit of “R&D” (Cat-DYC1355-5 Lot-1273366FA) was used, in accordance with manufacturer guide lines. Briefly, 96 well plates we coated with anti-p53 antibody overnight. Cell extracts containing p53 are reacted with an oligonucleotide that contains a p53 consensus binding site (provided in the kit), labeled with Biotin, in the presence or absence (NT) of test peptides. WT p53 is expected to bind this DNA binding site as well as to the antibody coating the test wells of the plate. Excess p53 and oligos were washed away and streptavidin-HRP was used to quantify the amount of oligos in the well, which is proportional to the DNA bound by p53. TMB assay was performed to determine HRP (ES001-1L-K) levels (450nm)."}
{"substance": "HSSHHHPVHSWN [pCAP-83]", "DNA SK3": 2}
{"substance": "myr-RRIRDPRILLLHFD [pCAP-325]", "DNA SK3": 3}
{"substance": "SFILFIRRGRLGRRRRRRRRR [pCAP-60R, pCAP-60 with poly arginine tail]", "DNA SK3": 2}
{"substance": "myr-PRVLPSPHTIHPSQYP [pCAP-229, myristoylated peptide, similarity to HIPK2]", "DNA SK3": 3}
{"substance": "LRCLLLLIGRVGRRRRRRRR [pCAP-24R, pCAP-24 with poly arginine tail]", "DNA SK3": 3}
{"substance": "YPTQGHLR [pCAP-36]", "DNA SK3": 2}
{"substance": "LRCLLLLIGRVG [pCAP-24]", "DNA SK3": 3}
{"substance": "WNHHHSTPHPAH [pCAP-97]", "DNA SK3": 2}
{"substance": "myr-RRKILFIRLMHNKH [pCAP-227, myristoylated peptide, similarity to GAS2]", "DNA SK3": 3}
{"substance": "WNHHHSTPHPAHRRRRRR [pCAP-97R, pCAP-97 with poly arginine tail]", "DNA SK3": 3}
{"substance": "LHSKTLVL [pCAP-17]", "DNA SK3": 3}
{"substance": "HANLHHT [pCAP-87]", "DNA SK3": 2}
{"substance": "myr-RRLIVRILKLPNPPER [pCAP-242]", "DNA SK3": 4}
{"substance": "myr-RRKHNKHRPEPDSDER [pCAP-221]", "DNA SK3": 3}
{"system": "mutp53 in SK3 cell extract", "experiment": "ELISA of mutp53 conformation, SK3", "format": "biochemical, human", "details": "score 0-6 compared to positive control", "source_text": "A total of close to 350 peptides, deduced from the phage sequences, were synthesized and subjected to several alternative complementary methods of semi high-throughput functional screening; we refer to these peptides as pCAPs (p53 conformation activating peptides). First, we used cell-free ELISA assays to evaluate the effect of individual peptides on mutp53 conformation and DNA binding in vitro. For conformation analysis (Figure 2A), microtiter plates were coated with PAb240, PAb1620 or PAb421 as control, then the effect of each peptide on reactivity of mutp53 with these antibodies was examined; WTp53 served as a positive control for PAb1620 reactivity.\n96-well plates were coated using 3 different anti p53 monoclonal antibodies, PAb421, PAb240 and PAb1620. Wells were incubated overnight (ON) with 100μl Ab (5μg/ml) in room temp (RT). The liquid was discarded, and the wells were washed 3 times with PBS, 200 μl. Next, blocking with 5% BSA in PBS for 2 hours (RT) was performed, followed by 3 washes in PBS. Samples of mutant and WT p53 proteins (100 μl, 10 μg/ml), together with control peptides or with test peptides 1-326 (5μg /ml), were incubated for 1.5 hours, and then added to the wells for1 hour at RT. 4 washes with PBST were performed. Next, HRP conjugated αp53 antibody (10μg/ml HAF1355 (R&D)) were added to the wells and incubated at RT for 1 hour. Plates were washed 3 times in PBST and TMB substrate solution (50μl each well, Thermo, (Cat. No. ES001-1L-K)) was added and incubated at 37°C for 20 min. The reaction was stopped with 2M Sulfuric acid (50μl). The absorbance was measured at 450 nm with a spectrophotometer. Protein concentration was determined by dividing the absorb an each sample to by the absorbance of PAb421 samples."}
{"substance": "HSSHHHPVHSWN [pCAP-83]", "Conform SK3": 2}
{"substance": "myr-RRIRDPRILLLHFD [pCAP-325]", "Conform SK3": 3}
{"substance": "SFILFIRRGRLGRRRRRRRRR [pCAP-60R, pCAP-60 with poly arginine tail]", "Conform SK3": 3}
{"substance": "myr-PRVLPSPHTIHPSQYP [pCAP-229, myristoylated peptide, similarity to HIPK2]", "Conform SK3": 2}
{"substance": "LRCLLLLIGRVGRRRRRRRR [pCAP-24R, pCAP-24 with poly arginine tail]", "Conform SK3": 2}
{"substance": "YPTQGHLR [pCAP-36]", "Conform SK3": 3}
{"substance": "LRCLLLLIGRVG [pCAP-24]", "Conform SK3": 2}
{"substance": "HHPWTHHQRWS [pCAP-20]", "Conform SK3": 4}
{"substance": "WNHHHSTPHPAH [pCAP-97]", "Conform SK3": 3}
{"substance": "myr-RRKILFIRLMHNKH [pCAP-227, myristoylated peptide, similarity to GAS2]", "Conform SK3": 1}
{"substance": "WNHHHSTPHPAHRRRRRR [pCAP-97R, pCAP-97 with poly arginine tail]", "Conform SK3": 3}
{"substance": "SFILFIRRGRLG [pCAP-60]", "Conform SK3": 2}
{"substance": "myr-RRKHNKHRPEPDSDER [pCAP-221]", "Conform SK3": 3}
{"substance": "YRRLLIGMMWRRRRRRRRR [pCAP-68]", "Conform SK3": 5}
{"system": "WI38", "experiment": "Crystal violet viability assay, WI38", "format": "cell-based", "set-up": "key: score 0- no effect-white; score 6- as or more effective than positive control- black", "details": "score 0-6 compared to positive control, 48 h", "method": "(§1) Cells were cultured in 96 wells plates with 2500-4000 cells/well. Serial dilutions of different peptides were added and the plates incubated for additional 48 h at 37°C. Then medium was removed and cell viability was determined by staining the cells with crystal violet (0.05%) in methanol/PBS (1:5, v/v), for 10 min, followed by 3 washes with PBS. 10% acetic acid was added to each well for 10 min. OD was determined at 595 nm."}
{"substance": "HSSHHHPVHSWN [pCAP-83]", "Viability WI38": 3}
{"substance": "myr-RRIRDPRILLLHFD [pCAP-325]", "Viability WI38": 6}
{"substance": "IRGRIIR [pCAP-54]", "Viability WI38": 4}
{"substance": "SFILFIRRGRLGRRRRRRRRR [pCAP-60R, pCAP-60 with poly arginine tail]", "Viability WI38": 2}
{"substance": "myr-PRVLPSPHTIHPSQYP [pCAP-229, myristoylated peptide, similarity to HIPK2]", "Viability WI38": 3}
{"substance": "IRGRIIRRRRRRRRR [pCAP-54R, pCAP-54 with poly arginine tail]", "Viability WI38": 4}
{"substance": "YPTQGHLR [pCAP-36]", "Viability WI38": 4}
{"substance": "WNHHHSTPHPAH [pCAP-97]", "Viability WI38": 4}
{"substance": "IRILMFLIGCGRRRRRRRRR [pCAP-23R, pCAP-23 with poly arginine tail]", "Viability WI38": 2}
{"substance": "myr-RRKILFIRLMHNKH [pCAP-227, myristoylated peptide, similarity to GAS2]", "Viability WI38": 3}
{"substance": "WNHHHSTPHPAHRRRRRR [pCAP-97R, pCAP-97 with poly arginine tail]", "Viability WI38": 4}
{"substance": "myr-RRLIVRILKLPNPPER [pCAP-242]", "Viability WI38": 4}
{"substance": "myr-RRKHNKHRPEPDSDER [pCAP-221]", "Viability WI38": 6}
{"system": "EP156", "experiment": "Crystal violet viability assay, EP156", "format": "cell-based", "set-up": "key: score 0- no effect-white; score 6- as or more effective than positive control- black", "details": "score 0-6 compared to positive control, 48 h", "source_text": "We also performed a similar analysis on ES2 ovarian cancer cells, which express endogenous mp53^S241F, compared to ES2 cells in which p53 was stably knocked out using CRISPR/Cas9 (ES2 p53KO Figure S1F), to control for specificity for mutp53 (Figure 2D). In ES2 cells, too, some of the peptides caused a significant reduction in cell numbers, more prominent in the mutp53 expressing cells than in their p53KO counterparts. […] Overall, we performed this analysis on several different mutp53-expressing human cancer cell lines, and the results are summarized in Table S3. Based on this comprehensive picture, we reduced the number of most promising candidate lead peptides to 30. These peptides were then synthesized with an 8 arginine C-terminal tail for enhanced delivery across cell membranes (pCAPs 130-160); for clarity, peptides are referred to by their original number, with an R for poly arginine (see Table S3).\nas §1"}
{"substance": "HSSHHHPVHSWN [pCAP-83]", "Viability EP156": 4}
{"substance": "myr-RRIRDPRILLLHFD [pCAP-325]", "Viability EP156": 4}
{"substance": "IRGRIIR [pCAP-54]", "Viability EP156": 4}
{"substance": "IRILMFLIGCGR [pCAP-23]", "Viability EP156": 4}
{"substance": "SFILFIRRGRLGRRRRRRRRR [pCAP-60R, pCAP-60 with poly arginine tail]", "Viability EP156": 2}
{"substance": "myr-PRVLPSPHTIHPSQYP [pCAP-229, myristoylated peptide, similarity to HIPK2]", "Viability EP156": 3}
{"substance": "IRGRIIRRRRRRRRR [pCAP-54R, pCAP-54 with poly arginine tail]", "Viability EP156": 4}
{"substance": "LRCLLLLIGRVGRRRRRRRR [pCAP-24R, pCAP-24 with poly arginine tail]", "Viability EP156": 4}
{"substance": "YPTQGHLR [pCAP-36]", "Viability EP156": 4}
{"substance": "LRCLLLLIGRVG [pCAP-24]", "Viability EP156": 4}
{"substance": "WNHHHSTPHPAH [pCAP-97]", "Viability EP156": 3}
{"substance": "IRILMFLIGCGRRRRRRRRR [pCAP-23R, pCAP-23 with poly arginine tail]", "Viability EP156": 4}
{"substance": "myr-RRKILFIRLMHNKH [pCAP-227, myristoylated peptide, similarity to GAS2]", "Viability EP156": 4}
{"substance": "WNHHHSTPHPAHRRRRRR [pCAP-97R, pCAP-97 with poly arginine tail]", "Viability EP156": 4}
{"substance": "LHSKTLVL [pCAP-17]", "Viability EP156": 4}
{"substance": "HANLHHT [pCAP-87]", "Viability EP156": 4}
{"substance": "myr-RRLIVRILKLPNPPER [pCAP-242]", "Viability EP156": 6}
{"substance": "SFILFIRRGRLG [pCAP-60]", "Viability EP156": 4}
{"substance": "myr-RRKHNKHRPEPDSDER [pCAP-221]", "Viability EP156": 5}
{"substance": "YRRLLIGMMWRRRRRRRRR [pCAP-68]", "Viability EP156": 3}
